The target in assay [1] is T1, recombinant human α1D receptor (Homo sapiens, UniProt P25100).
T1 construct: expressed in transfected cells; host or cells: HEK293
T1 sequence (P25100 1-572): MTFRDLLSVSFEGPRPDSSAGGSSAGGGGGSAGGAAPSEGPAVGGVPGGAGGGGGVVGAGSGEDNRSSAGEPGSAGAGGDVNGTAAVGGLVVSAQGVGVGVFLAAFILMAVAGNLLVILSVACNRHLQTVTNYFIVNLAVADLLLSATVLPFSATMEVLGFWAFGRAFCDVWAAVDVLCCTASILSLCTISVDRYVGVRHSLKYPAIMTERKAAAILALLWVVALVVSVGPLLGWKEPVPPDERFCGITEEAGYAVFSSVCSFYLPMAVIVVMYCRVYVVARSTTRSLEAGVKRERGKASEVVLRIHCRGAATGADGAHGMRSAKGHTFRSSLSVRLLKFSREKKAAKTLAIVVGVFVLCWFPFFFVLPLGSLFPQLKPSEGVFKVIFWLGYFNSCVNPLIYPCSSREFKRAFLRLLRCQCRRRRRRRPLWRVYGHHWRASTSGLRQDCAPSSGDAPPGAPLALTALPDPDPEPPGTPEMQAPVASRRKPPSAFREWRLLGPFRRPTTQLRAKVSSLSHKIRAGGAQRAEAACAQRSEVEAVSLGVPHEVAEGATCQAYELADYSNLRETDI
The assay can be described thus: Adrenergic α1D selectivity assay, [3H]-prazosin binding to HEK293 membranes. The settings on record: inhibition of [3H]-prazosin binding, HEK293 membranes with recombinant human α1D; read-out: α1D pEC50 (converted). The method, then:
These were diluted in Assay Buffer (50 mM HEPES, 1 mM EDTA, 0.1% gelatin, pH 7.4) to provide a final concentration of membranes that gave a clear window between maximum and minimum specific binding.
Assays were performed in U-bottomed 96-well polypropylene plates. […] For each assay plate 8 replicates were obtained for [^3H]-prazosin binding in the presence of 10 μL vehicle (10% (v/v) DMSO in Assay Buffer; defining maximum binding) or 10 μL BMY7378 (10 μM final concentration; defining non-specific binding (NSB)). Membranes were then added to achieve a final volume of 100 μL. The plates were incubated for 2 hours at room temperature and then filtered onto PEI coated GF/B filter plates, pre-soaked for 1 hour in Assay Buffer, using a 96-well plate Tomtec cell harvester. Five washes with 250 μL wash buffer (50 mM HEPES, 1 mM EDTA, pH 7.4) were performed at 4° C. to remove unbound radioactivity. The plates were dried then sealed from underneath using Packard plate sealers and MicroScint-O (50 μL) was added to each well. The plates were sealed (TopSeal A) and filter-bound radioactivity was measured with a scintillation counter (TopCount, Packard BioScience) using a 3-minute counting protocol.
(§1) Total specific binding (B0) was determined by subtracting the mean NSB from the mean maximum binding. NSB values were also subtracted from values from all other wells.

The target in assay [2] is T2, Adrenergic β2 (Homo sapiens, UniProt P07550).
T2 construct: endogenous in cells; host or cells: H292 cells
T2 sequence (P07550 whole entry): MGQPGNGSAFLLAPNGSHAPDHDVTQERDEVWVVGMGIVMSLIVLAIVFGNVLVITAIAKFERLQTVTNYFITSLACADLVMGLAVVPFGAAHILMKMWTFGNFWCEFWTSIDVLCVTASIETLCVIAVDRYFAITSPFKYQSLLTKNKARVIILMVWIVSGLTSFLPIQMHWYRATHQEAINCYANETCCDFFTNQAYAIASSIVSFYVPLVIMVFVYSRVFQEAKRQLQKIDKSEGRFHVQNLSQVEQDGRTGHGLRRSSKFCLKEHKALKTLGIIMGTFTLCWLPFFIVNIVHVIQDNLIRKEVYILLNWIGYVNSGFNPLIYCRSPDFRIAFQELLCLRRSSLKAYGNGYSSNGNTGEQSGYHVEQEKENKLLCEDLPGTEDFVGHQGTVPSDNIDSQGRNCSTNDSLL
The assay can be described thus: Adrenergic β2 mediated cAMP production in H292 cells (AlphaScreen cAMP detection). The settings on record: for EC50: cAMP production in H292 cells, 300 μM rolipram, 10 minutes with compound, read-out: β2 pEC50 (converted). Format: cell-based. The method, then: Adrenergic β2 Mediated cAMP Production
H292 cells were grown in RPMI (Roswell Park Memorial Institute) medium containing, 10% (v/v) FBS (foetal bovine serum) and 2 mM L-glutamine. Cells were grown in 225 cm2 flasks containing 25 mL media in a humidified incubator at 37° C., 5% CO2. Cells were harvested from the flask and passaged at a 1 in 10 dilution once per week.
The media from flasks containing H292 cells was removed, rinsed with 10 mL PBS phosphate buffered saline) and replaced with 10 mL Accutase™ cell detachment solution. Flasks were incubated for 15 minutes in a humidified incubator at 37° C., 5% CO2. The cell suspension was counted and the cells re-suspended in RPMI media (containing 10% (v/v) FBS and 2 mM L-glutamine) at 0.05×10^6 cells per mL. 5000 cells in 100 μL were added to each well of a tissue-culture-treated 96-well plate and the cells incubated overnight in a humidified incubator at 37° C., 5% CO2. The culture media was removed, washed twice with 100 μL assay buffer and replaced with 50 μL assay buffer. Cells were rested at room temperature for 20 minutes after which time 25 μL of rolipram (1.2 mM made up in assay buffer containing 2.4% (v/v) dimethylsulphoxide) was added. Cells were incubated with rolipram for 10 minutes after which time test compounds (made up as ×4 concentrated stocks in assay buffer containing 4% (v/v) dimethylsulphoxide) were added and the cells were incubated for 10 minutes at room temperature. Final rolipram concentration in the assay was 300 μM and final vehicle concentration was 1.6% (v/v) dimethylsulphoxide. The reaction was stopped by removing supernatants, washing once with 100 μL assay buffer and replacing with 50 μL lysis buffer. The cell monolayer was frozen at −80° C. for 30 minutes (or overnight).
The concentration of cAMP (cyclic adenosine monophosphate) in the cell lysate was determined using the AlphaScreen™ methodology. The frozen cell plate was thawed for 20 minutes on a plate shaker then 10 μL of the cell lysate was transferred to a 96-well white plate. 40 μL of mixed AlphaScreen™ detection beads (containing equal volumes of donor beads (pre-incubated with biotinylated cAMP in the dark for 30 minutes) and acceptor beads), was added to each well and the plate incubated at room temperature for 10 hours in the dark. The AlphaScreen™ signal was measured using an EnVision spectrophotometer (Perkin-Elmer Inc.) with the recommended manufacturer's settings. cAMP concentrations were determined by reference to a calibration curve determined in the same experiment using standard cAMP concentrations (made up in lysis buffer in a 96-well tissue-culture-treated plate and frozen/thawed alongside the test samples) and detected using the same protocol. Concentration response curves for agonists were constructed to determine both the pEC50 and Intrinsic Activity.

Assay [3] addresses T3, recombinant human adrenergic beta 1 receptors (Homo sapiens, UniProt P08588).
T3 construct: purchased Euroscreen
The assay can be described thus: Adrenergic β1 selectivity assay, [125I]-Iodocyanopindolol binding to membranes. The settings on record: inhibition of [125I]-Iodocyanopindolol binding, read-out: β1 pEC50 (converted). The method, then:
Membranes containing recombinant human adrenergic beta 1 receptors were obtained from Euroscreen. These were diluted in Assay Buffer (50 mM HEPES, 1 mM EDTA, 120 mM NaCl, 0.1% gelatin, pH 7.4) to provide a final concentration of membranes that gave a clear window between maximum and minimum specific binding.
Assays were performed in U-bottomed 96-well polypropylene plates. 10 μL [^125I]-Iodocyanopindolol (0.036 nM final concentration) and 10 μL of test compound (10× final concentration) were added to each test well. For each assay plate 8 replicates were obtained for [^125I]-Iodocyanopindolol binding in the presence of 10 μL vehicle (10% (v/v) DMSO in Assay Buffer; defining maximum binding) or 10 μL Propranolol (10 μM final concentration; defining non-specific binding (NSB)). Membranes were then added to achieve a final volume of 100 μL. The plates were incubated for 2 hours at room temperature and then filtered onto PEI coated GF/B filter plates, pre-soaked for 1 hour in Assay Buffer, using a 96-well plate Tomtec cell harvester. Five washes with 250 μL wash buffer (50 mM HEPES, 1 mM EDTA, 120 mM NaCl, pH 7.4) were performed at 4° C. to remove unbound radioactivity. The plates were dried then sealed from underneath using Packard plate sealers and MicroScint-O (50 μL) was added to each well. The plates were sealed (TopSeal A) and filter-bound radioactivity was measured with a scintillation counter (TopCount, Packard BioScience) using a 3-minute counting protocol.
as §1

[4] abbreviates: fraction relative to the maximum activity determined for formoterol in each experiment, H292 cells, cAMP.

Counter-ions that a name gives are not always drawn. Like-named read-outs stand apart in the source and are kept apart here.

T3 sequence (P08588 whole entry): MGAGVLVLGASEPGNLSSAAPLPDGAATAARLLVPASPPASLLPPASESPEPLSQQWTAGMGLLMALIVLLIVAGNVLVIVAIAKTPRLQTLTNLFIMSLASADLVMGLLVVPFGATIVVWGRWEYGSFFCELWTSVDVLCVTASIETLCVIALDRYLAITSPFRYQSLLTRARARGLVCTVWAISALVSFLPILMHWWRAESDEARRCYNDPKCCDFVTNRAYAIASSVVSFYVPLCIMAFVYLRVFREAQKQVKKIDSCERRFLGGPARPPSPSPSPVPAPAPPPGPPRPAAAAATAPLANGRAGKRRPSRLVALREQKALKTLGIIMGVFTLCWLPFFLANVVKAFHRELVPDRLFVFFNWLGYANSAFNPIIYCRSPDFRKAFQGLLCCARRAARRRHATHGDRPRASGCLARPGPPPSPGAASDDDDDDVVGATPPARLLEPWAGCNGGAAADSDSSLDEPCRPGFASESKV

Take `O=c1[nH]c2c(O)ccc([C@@H](O)CNCCc3cccc(CNCc4ccccn4)c3)c2s1` [Example 61, 4-Hydroxy-7-{1R-hydroxy-2-[2-(3-{[(pyridin-2-ylmethyl)-amino]-methyl}-phenyl)-ethylamino]-ethyl}-3H-benzothiazol-2-one bis-hydrochloride salt]: the EC50 in assay [1] was 316 nM; in assay [3], 79.4 nM. For the same compound, the “Intrinsic Activity” value in assay [2] is given as 0.9.
For the compound `CC(C)OCCCNCc1cccc(CCNC[C@H](O)c2ccc(O)c3[nH]c(=O)sc23)c1` [Example 64, 4-Hydroxy-7-[1R-hydroxy-2-(2-{3-[(3-isopropoxy-propylamino)-methyl]-phenyl}-ethylamino)-ethyl]-3H-benzothiazol-2-one bis-hydrochloride salt], the figures for the EC50 in assay [1], in assay [2] and in assay [3] were 398 nM, 0.794 nM and 501 nM, respectively. In addition, the “Intrinsic Activity” value in assay [2] (setting [4]) is 0.8.
Take `O=c1[nH]c2c(O)ccc([C@@H](O)CNCCc3cccc(CN4CCCCCC4)c3)c2s1` [Example 71, 7-{2-[2-(3-Azepan-1-ylmethyl-phenyl)-ethylamino]-1R-hydroxy-ethyl}-4-hydroxy-3H-benzothiazol-2-one bis-hydrochloride salt-]: the EC50 in assay [1] was 31.6 nM; in assay [2], 0.794 nM; in assay [3], 398 nM. Also, in assay [2] (setting [4]), the “Intrinsic Activity” value was 0.9.
On the same counts, the results for `O=c1[nH]c2c(O)ccc([C@@H](O)CNCCc3cccc(CN4CCOCC4)c3)c2s1` [Example 72, 4-Hydroxy-7-{1R-hydroxy-2-[2-(3-morpholin-4-ylmethyl-phenyl)-ethylamino]-ethyl}-3H-benzothiazol-2-one bis-hydrochloride salt] are 398 nM, 1 nM, 100 nM and 0.9.

These data come from US7951954B2, “Bezothiazol derivatives as Beta2 adrenoreceptor agonists” (AstraZeneca AB, priority 2006, dated 2011).
